Test system: NMU-induced mammary tumors
Assay: NMU-induced mammary tumors in Sprague-Dawley rats
Format: in vivo, rat
Conditions: for Effect on tumors (in words): i.p., tumor size and number; for Number of first tumors with volume relative to day 0: progressed > 100% / Number of first tumors with volume relative to day 0: regressed > 50% / Number of first tumors with volume relative to day 0: static / Number of first tumors: total: 25 mg/kg i.p. q.d.; for No. of first tumors regressing to unpalpable/no. palpable at day 0: 25 mg/kg i.p., 5×/wk for 4 weeks
Excerpt: Thus, compounds of formula 1 have efficacy against established nitrosomethylurea (NMU)-induced mammary tumors in rats. The induction of invasive mammary-tissue specific tumors in rats by NMU (Gullino et al., 1975) produces primarily estrogen-dependent carcinomas (Arafah et al., 1980) within as little as 4 weeks following a single, low-toxicity dose (McCormick et al., 1981) and results in a high percentage of tumor induction. The properties of the tumors induced in rats by NMU in this experimental model are representative of human mammary carcinoma and are invasive (McCormick et al., 1981).
Materials and Methods, 750 virgin female Sprague-Dawley rats 26 to 32 days of age (Harlan Laboratories) were housed in polycarbonate cages (3 rats/cage) and provided food and water ad libitum. Mammary tumors were induced essentially as previously described (Gullino et al., 1975 and McCormick et al., 1981). At the age of 50+/-3 days, each animal received a single dose (50 mg/kg body weight) of NMU (Sigma, St. Louis, Mo.) in 0.85% sodium chloride acidified to pH 5.0 with acetic acid. The carcinogen was administered with a 26 g needle i.v. via the tail vein in a 0.5 ml volume.
Rats were checked weekly starting 4 weeks after NMU administration for palpable tumors and those bearing at least one mammary tumor, palpable for 11 days or less, were entered into study on day 61 post-NMU administration. Fifteen animals were entered into treatment or control groups. Tumor diameters were measured weekly with calipers along their long and short axes and tumor volume was calculated from the ellipsoid formula, (D×d^2)/2, where D is the long diameter and d is the short diameter. The days on which new palpable tumors arose or on which established tumors disappeared were noted along with anatomical position. Tumors which appeared in the same anatomical location at which a tumor had previously completely regressed were considered to be regrowths of the same tumor. Rats which developed ulcerations of tumors were immediately terminated from studies. All animals entered into groups were weighed daily on weekdays for 6 weeks.
N-(4-hydroxyphenyl)-(2E,4E,6Z)-7-[3,5-bis(trifluoromethyl)phenyl]-3,7-dimethyl-2,4,6-heptatrienamide was prepared in 4% ethanol, 8% PEG400, 7.2% Cremophor RH40 and 80% D5W and administered intraperitoneally in a 2.8 ml volume via a 21 g needle 5 times per week, q.d., for 4 weeks.
For treatment of NMU-induced tumors in rats, solutions of the test compound N-(4-hydroxyphenyl)-(2E,4E,6Z)-7-[3,5-bis(trifluoromethyl)phenyl]-3,7-dimethyl-2,4,6-heptatrienamide were prepared daily in 4% ethanol, 8% PEG400, 7.2% Cremophor RH40 and 80% D5W.

C/C(=C/C=C/C(C)=C/C(=O)Nc1ccc(O)cc1)c1cc(C(F)(F)F)cc(C(F)(F)F)c1 [N-(4-hydroxyphenyl)-(2E,4E,6Z)-7-[3,5-bis(trifluoromethyl)phenyl]-3,7-dimethyl-2,4,6-heptatrienamide]
Rats treated that succumbed to toxicity (25 mg/kg/2.8 ml i.p. q.d., 5×/wk for 4 wks): 3 of 15 | Effect on tumors (in words): decrease both tumor size and tumor number | Effect on tumors (in words) (listed as the tested compound): capable of causing existing tumors to shrink, and, in addition, causes the number of tumors to decrease by eliminating first tumors and preventing additional tumors from arising | Number of first tumors with volume relative to day 0: progressed > 100% (week 1, 5×/wk for 4 wks): 4 | Number of first tumors with volume relative to day 0: regressed > 50% (week 1, 5×/wk for 4 wks): 10 | Number of first tumors with volume relative to day 0: static (week 1, 5×/wk for 4 wks): 5 | Number of first tumors: total (week 1, 5×/wk for 4 wks): 19 | No. of first tumors regressing to unpalpable/no. palpable at day 0 (week 1, ** p < 0.005 vs vehicle): 7/20 | Number of first tumors with volume relative to day 0: progressed > 100% (week 2, 5×/wk for 4 wks): 6 | Number of first tumors with volume relative to day 0: regressed > 50% (week 2, 5×/wk for 4 wks): 8 | Number of first tumors with volume relative to day 0: static (week 2, 5×/wk for 4 wks): 5 | Number of first tumors: total (week 2, 5×/wk for 4 wks): 19 | No. of first tumors regressing to unpalpable/no. palpable at day 0 (week 2, * p < 0.05 vs vehicle): 5/19 | Number of first tumors with volume relative to day 0: progressed > 100% (week 3, 5×/wk for 4 wks): 6 | Number of first tumors with volume relative to day 0: regressed > 50% (week 3, 5×/wk for 4 wks): 6 | Number of first tumors with volume relative to day 0: static (week 3, 5×/wk for 4 wks): 3 | Number of first tumors: total (week 3, 5×/wk for 4 wks): 19 | No. of first tumors regressing to unpalpable/no. palpable at day 0 (week 3): 3/19 | No. of first tumors regressing to unpalpable/no. palpable at day 0 (week 4, * p < 0.05 vs vehicle): 4/19 | No. of first tumors regressing to unpalpable/no. palpable at day 0 (week 5): 4/18 | No. of first tumors regressing to unpalpable/no. palpable at day 0 (week 6, * p < 0.05 vs vehicle): 5/18
